Reference: patent US5770623A, “Argine antagonists for inhibition of systemic hypotension associated with nitric oxide production or endothelial derived relaxing factor” (Board of Regents, The University of Texas System, priority 1995, dated 1998)
Read-outs that look alike come from different tables or passages of the source.

Tests used:
[1] = tested on: murine endothelial cells exposed to Gamma-Interferon and TNF (nitric oxide production); experiment: Inhibition of nitrite production by MBEC exposed to IFN (100 U/ml) and TNF (500 U/ml); type: cell-based; details: for IC50: Mus musculus, Endothelial cell, 48 h, read-out: ED50% (effective dose that inhibited 50% of the nitrite production); for potency ranking as inhibitor of nitric oxide production: analogs of Table 5
Method: Endothelial cells--MBEC's were isolated from murine brain microvessels and cultured on gelatin-coated tissue culture dishes in DME/F12 media supplemented with 2% PPPHS, 5% FBS (Hyolone), 50 μg/ml ECGF (Biomed Tech), and 10 U/ml heparin (Sigma) as previously described (Belloni et al. 1989). The endothelial derivation of MBEC's was determined by the presence of a non-thrombogenic surface to platelets and immunofluorescent staining for Factor VIII related antigen. MBEC's were used between passage 6-9 for all experiments.
Nitrite Assay--MBE cells were cultured on gelatin-coated well plates (Corning) in 100 μl of culture medium and treated with cytokines at 3 days post-confluence. After 48 hours, nitrite production was determined by a colorimetric assay. […] All treatments were performed in triplicate and data presented as the mean value±standard deviation. […]
production by murine endothelial cells exposed to GammaInterferon (100
U/ml) and TNF (500 U/ml) in vitro.

[2] = tested on: mongrel dogs with TNF-induced hypotension; experiment: TNF-induced hypotension in anesthetized dogs; type: in vivo, dog; details: dog, FIG. 25
Method: Recombinant human TNF specific activity 2×10^7 units/mg, was from the Niposn Chemical Corporation, Tokyo, Japan. TNF was administered at a dose of 10 mcg/kg in a volume of 10 ml of phosphate buffered saline containing 2 mgs/ml of dog albumin. […] Arginine was obtained from Sigma Chemical Company, St. Louis, Mo.
Four conditioned mongrel dogs, 2 males and 2 females, weighing 28 to 30 kgs, were studied. Care of the animals were in accordance with the recommendation of the American Association for Accreditation of Laboratory Animals [DHEW(DHHS) publication no. (NIH) 78-23, revised, 1978]. On the day of the experiment, the dogs were fasted overnight. They were anesthetized with phenobarbital (10 mg/kg). They were then intubated orally with a #10 fr. endotracheal tube and ventilated with a Harvard pump ventilator at a rate of 12 breaths per minute and a tidal volume of 15 ml/kg. An arterial line was percutaneously placed in the femoral artery on the day of the experiment.
Mean (electronic) and phasic systemic arterial pressures (SAP) were continuously recorded on a Hewlett-Packard recording system (model 7758B) using strain gauge manometers (Hewlett-Packard model 1290A) which were connected to the arterial line. Heart rate (HR) was determined from an EKG tracing and continuously recorded on the Hewlett-Packard recording system. Oxyhemoglobin saturation (SaO2) was obtained using a pulse oximeter (BIOX 111, Boulder, Colo.). continuous time-series records of SAP, HR, and SaO2 were obtained using a Lab Master analog-to-digital convertor (16 channel, 12 bit, 30 kHz; Scientific Solutions, Inc.) sampling at 55 Hz and storing the 6 sec averages on a magnetic disk.

[3] = tested on: guinea pig pulmonary artery rings; experiment: Relaxation of preconstricted guinea pig pulmonary artery rings; details: for inhibition of EDRF/NO synthesis: guinea pig pulmonary artery rings, 1 μM NE, ACh
L929 cells = experiment: Cytolytic activity of rh-TNF against Actinomycin D-treated L929 cells; type: cell-based, murine; details: murine L929 cells, in vitro
Method: TNF bioactivity was measured by the cytotoxicity towards murine L929 cells, in vitro.

lethal ET shock animal = experiment: Reversal of lethal-dose endotoxin shock by N^G-aminoarginine; type: in vivo
Method: The reversal of ET shock (lethal dose) by N^G -aminoarginine (NAA) for 4 hrs. […] FIG. 26 depicts systemic arterial pressure (SAP) versus time (min). ET (2 mg/kg), a lethal dose, was infused over 60 min. and NAA administered at 97, 165, and 374 min. to maintain blood pressure. The animal was survived for 24 hours and then autopsied.

[4] = tested on: systemic hypotension mediated by interleukin-1; experiment: Interleukin-1 mediated systemic hypotension; type: in vivo; details: FIG. 27
anesthetized guinea pig = experiment: Pressor effect in the anesthetized guinea pig; type: in vivo; details: 1-10 mg/kg i.v. (L-NMA)
Source text: Points are mean changes in diastolic arterial pressure (±SEM; n=4-5). Control systolic and diastolic BP was 75±3 and 51±3 mm Hg, respectively.

[5] = molecular target: EMT6 enzyme system (NO formation from L-arginine) (Mus musculus, UniProt P29477); experiment: Arginine-dependent nitrite synthesis by cytosol of stimulated EMT6 cells; type: biochemical, murine
EMT6 enzyme system (NO formation from L-arginine), sequence (P29477 whole entry): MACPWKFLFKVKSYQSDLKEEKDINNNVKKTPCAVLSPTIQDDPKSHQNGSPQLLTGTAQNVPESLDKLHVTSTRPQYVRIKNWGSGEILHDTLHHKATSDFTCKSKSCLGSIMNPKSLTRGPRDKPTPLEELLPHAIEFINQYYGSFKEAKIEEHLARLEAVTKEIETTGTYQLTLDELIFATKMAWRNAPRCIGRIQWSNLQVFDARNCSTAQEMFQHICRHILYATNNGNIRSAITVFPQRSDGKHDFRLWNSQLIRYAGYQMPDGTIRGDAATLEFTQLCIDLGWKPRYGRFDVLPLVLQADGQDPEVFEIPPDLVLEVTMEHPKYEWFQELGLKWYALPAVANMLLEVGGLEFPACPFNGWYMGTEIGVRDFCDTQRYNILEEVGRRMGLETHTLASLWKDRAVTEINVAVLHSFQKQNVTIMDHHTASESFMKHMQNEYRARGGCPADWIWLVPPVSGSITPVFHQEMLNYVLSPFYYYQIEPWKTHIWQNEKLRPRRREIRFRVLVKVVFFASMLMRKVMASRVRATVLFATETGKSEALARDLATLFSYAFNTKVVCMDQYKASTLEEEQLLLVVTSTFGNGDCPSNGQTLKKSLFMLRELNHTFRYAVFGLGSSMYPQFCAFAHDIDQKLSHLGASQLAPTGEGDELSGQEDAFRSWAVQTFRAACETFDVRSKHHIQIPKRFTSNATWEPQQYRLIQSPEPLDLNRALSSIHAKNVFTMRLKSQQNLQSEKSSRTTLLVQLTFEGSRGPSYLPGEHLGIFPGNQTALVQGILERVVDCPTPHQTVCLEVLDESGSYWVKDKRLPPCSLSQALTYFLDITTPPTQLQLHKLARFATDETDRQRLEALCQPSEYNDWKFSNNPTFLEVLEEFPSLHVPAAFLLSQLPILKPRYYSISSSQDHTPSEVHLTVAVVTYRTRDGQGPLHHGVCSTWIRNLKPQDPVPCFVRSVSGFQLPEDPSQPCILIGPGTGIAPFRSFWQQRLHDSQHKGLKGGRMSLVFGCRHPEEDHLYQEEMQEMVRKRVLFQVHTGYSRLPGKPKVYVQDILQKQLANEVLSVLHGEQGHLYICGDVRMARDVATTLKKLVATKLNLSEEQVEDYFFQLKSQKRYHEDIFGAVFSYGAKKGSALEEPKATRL
Method: Thus EMT6 cytosolic preparations (i.e., cell-free solutions) were prepared and an enzyme activity was characterized which forms NO and citrulline from arginine. This reaction requires NADPH (FIG. 18 and 19) and other cofactors.
Incubation mixtures were 100 μl total volume containing: 40 μl cytosol (100,000×g supernatant), 2 mM L-arginine, 2 mM NADPH, 20 mM TRIS (pH 8.0) and a "cocktail" of protease inhibitors.
From kinetic studies an apparent Michaelis-Menton constant for L-arginine utilization by the enzyme was deduced. FIG. 20 is a Lineweaver-Burke plot for synthesis of nitrite from L-arginine by cytosol from stimulated EMT6 cells. The rate of nitrite formation was evaluated over a range of L-arginine (ARG) concentrations (from 0.03-2.0 mM) under conditions similar to that described for FIG. 18, except that incubates contained 50 μl cytosol in a total volume of 80 μl. Open and filled circles represent results obtained with each of two cytosol preparations. […] N^G -substituted arginine analogs were screened for precise quantitation of their ability to inhibit arginine-dependent NO formation by the EMT6 enzyme system.

rabbit aortic rings = experiment: ACh-induced relaxation of isolated rabbit aortic rings; details: isolated rabbit aortic rings, FIG. 9b
Source text: FIG. 9b compares concentration-response relationships for the same set of mono- and disubstituted arginine analogs as FIG. 9a, plus an additional dimethyl analog with the two methyl groups on different guanidino nitrogens. The test is for inhibition of ACh-induced vasorelaxation in isolated rabbit aortic rings. The points plotted represent means±S.E. of the maximum responses to ACh observed in the presence of the indicated concentrations of analogs (n=4).
Guinea pig pulmonary artery (GP PA), rat and rabbit aorta (Ao), and dog coronary (CA) and femoral artery (FA) were precontracted with NE (1 μM) and relaxed with a single concentration of ACh. Concentration of ACh: GP PA 1 μM, rat Ao […], rabbit Ao 0.3, dog CA […] and […] 0.1 μM. […] The concentrations of L-citrulline (L-cit), D-arginine (D-arg) and L-arginine (L-arg) were all 0.5 mM. Bars are mean values±SEM (n=4-6).
FIG. 11 contains representative physiograph tracings which depict ACh-induced relaxation of NE-preconstricted rings prepared from rabbit aorta (upper panel) and human internal mammary artery (lower panel).

[6] = tested on: bovine aortic endothelial cells (BAEC); experiment: A23187-stimulated nitrite release from bovine aortic endothelial cells; type: cell-based; details: 2-hr, L-arginine-free medium, FIG. 9a
Method: The % inhibition of relaxation is calculated from the maximum ACh-induced relaxation observed in the presence of the arginine analog relative to that in its absence. Points represent mean values±SEM (n=4-6). […] Another N^G substitution tested for inhibition of induced nitrite release had two methyl groups on one of the arginine guanidino nitrogens. Concentration-response relationships for inhibition of A23187-stimulated nitrite release by bovine aortic endothelial cells (BAEC) are shown in FIG. 9a for the N,N-disubstituted derivative in comparison with several monosubstituted derivatives. Nitrite production was measured as an indication of nitric oxide synthesis since nitric oxide spontaneously decays to nitrite. Nitrite production by BAEC in a 2-hr. period was assessed in an L-arginine-free medium alone or in the presence of the indicated concentration of arginine analogs. The points plotted represent means±S.E. of the percent inhibition of nitrite production observed in 3 individual BAEC culture wells. The key on FIG. 9a indicates the groups substituted on the guanidino nitrogens of L-arginine.
Points are mean values±SEM (n=3).

[7] = tested on: nitroglycerin-treated dogs; experiment: Nitroglycerin-induced hypotension in dogs (Example 4); type: in vivo, dog; details: Table 1, Study 2: Nitroglycerin-treated (n = 3)
Method: Animals: Studies were carried out on 12 conditioned mongrel dogs (9 males and 3 females) weighing 22-32 kg (avg=25.3 kg). Animal care was in accordance with the recommendations of the American Association for Accreditation of Laboratory Animal Care, and met all standards prescribed by the Guide for the Care and Use of Laboratory Animals (Guide for the Care and Use of Laboratory Animals (1978) Dept. of Health, Education and Welfare, Washington, D.C. (Publ. No. 78-23). Animal protocols were approved by The University of Texas Animal Welfare Committee. The dogs were fasted overnight prior to the day of experimentation. They were anesthetized with sodium pentobarbital (25 mg/kg I.v.). Dogs were then endotracheally intubated and ventilated with a piston-driven respirator (Harvard instruments) using room air at a tidal volume of 20 ml/kg and at a rate of 10 to 12 breaths per minute, adjusted to achieve a normal arterial pH and pCO2 (Instrumentation Laboratories 1L13012 pH/Blood Gas Analyzer). Catheters were placed percutaneously into the femoral and pulmonary arteries; In the latter, a flow-directed thermal-dilation catheter was used (Abbott Critical Care Systems).
Physiologic measurements: Mean SAP and heart rate were continuously monitored (Parametron 7048 Monitoring System, Roche) and stored on a magnetic disk using an analog-to-digital converter (Scientific Solutions, Inc.). Cardiac output (CO) was determined as the mean of six measurements by thermal-dilution. Systemic vascular resistance was calculated as (SAP X80)/CO and expressed as […].
Protocol: After the blood pressure and heart rate stabilized, endotoxin (40 ug/kg, in 10 ml of phosphate-buffered saline (PBS), pH 7.4) was infused i.v. over 2 minutes. This dose of endotoxin typically induces severe and often lethal cardiovascular collapse in the dog. Blood pressure was monitored, and when either SAP fell below 60 mmHg or a stable nadir in systemic arterial pressure (SAP) was maintained for 10 minutes, L-NMA was administered (20 mg/kg in 5 ml of PBS i.v. over 1 min.). In most experiments, L-arginine (400 mg/kg in 20 mi PBS) was administered ten minutes later by i.v. infusion over 2 minutes. In control experiments, dogs without prior exposure to endotoxin received L-NMA alone. To simulate the hypotension observed in dogs receiving endotoxin, one group of dogs received a continuous i.v. infusion of nitroglycerin (2 mg/ml) at a rate adjusted to maintain the SAP at 60-70 mm Hg. Nitroglycerin-treated dogs then received L-NMA (20 mg/kg) and 20 minutes later L-arginine was administered […].
In an additional series of experiments, blood pressure was reduced to 65 mm Hg by continuous i.v. infusion of nitroglycerin, a hypotensive agent that forms NO by an L-arginine and NO synthetase-independent mechanism.

[8] = tested on: isolated guinea pig heart; experiment: Histamine-induced nitrite release and coronary flow in isolated perfused guinea pig heart; details: histamine-elicited
Method: Histamine was administered as a rapid bolus injection into the aorta and net nitrite release during the subsequent 2.5 minutes was determined.

[9] = tested on: murine brain endothelial cells (MBEC); experiment: Nitrite production by MBEC exposed to cytokines / immunomodulators (Griess assay); type: cell-based; details: IFN 100 U/ml, TNF 500 U/ml, IL-1 10 U/ml, endotoxin 1 μg/ml; 48 hours
[10] = murine endothelial cells, Gamma-Interferon (100 U/ml) and TNF (500 U/ml), in vitro

Molecule: N=C(NN)NCCC[C@H](N)C(=O)O [Aminoarginine, L-N^G -aminoarginine]
- IC50 [1]: 110 µM
- potency ranking as inhibitor of nitric oxide production [1]: most potent inhibitor of nitric oxide production measured thusfar
- potency ranking as inhibitor of nitric oxide production ([1]; listed as N^G -aminoarginine): most potent derivative tested
- effectiveness in reversing TNF hypotension vs NMMA [2]: more effective than NMMA
- activity ranking in inhibition of ACh-induced relaxation ([3]; compounds tested thus far): greatest activity
- inhibition of EDRF/NO synthesis [3]: served as inhibitors of EDRF/NO synthesis
- effect on cytolytic effect of TNF towards tumor cells (L929 cells): did not alter the cytolytic effect of TNF
- survival (lethal ET shock animal; ET 2 mg/kg, multiple NAA doses, then autopsied): 24 h
- pathological changes at autopsy (lethal ET shock animal; liver, lungs, heart, brain, bowel or kidney): No pathological changes
- reversal of IL-1 mediated hypotension [4]: reverse systemic hypotension

Molecule: CNC(=N)NCCC[C@@H](N)C(=O)O [D-NMA, reference compound]
- inhibition of EDRF/NO synthesis [3]: not an inhibitor of EDRF/NO synthesis

Molecule: CCNC(=N)NCCC[C@H](N)C(=O)O [L-N^G -ethylarginine (L-NEA), L-N^G -ethylarginine]
- effect on diastolic BP / pressor effect (words) (anesthetized guinea pig): sustained pressor effect
- mode of inhibition ([5]; Lineweaver-Burke): competitive inhibitor
- fold less active than NMMA ([5]; compared with NMMA, FIG. 22): approximately 10 -fold

Molecule: CN=C(NC)NCCC[C@H](N)C(=O)O [Me,Me'--]
- inhibition of ACh-induced vasorelaxation (rabbit aortic rings): not a good inhibitor

Molecule: CN(C)C(=N)NCCC[C@H](N)C(=O)O [Me,Me--]
- inhibition of EDRF/NO synthesis [3]: served as inhibitors of EDRF/NO synthesis
- inhibition of ACh-induced vasorelaxation (rabbit aortic rings): active inhibitor
- potency for inhibition of A23187-stimulated nitrite release [6]: approximately equipotent to L-N^G -methylarginine

Molecule: COC(=O)[C@H](N)CCCNC(=N)N[N+](=O)[O-] [Nitro-D-Arginine methyl ester]
- IC50 [1]: > 4500 µM

Molecule: N=C(NCCC[C@@H](N)C(=O)O)N[N+](=O)[O-] [Nitro-D-Arginine]
- IC50 [1, 10]: > 4500 µM

Molecule: N=C(NCCC[C@H](N)C(=O)OCc1ccccc1)N[N+](=O)[O-] [Nitro-L-Arginine benzyl ester]
- IC50 [1, 10]: > 1200 µM

Molecule: COC(=O)[C@@H](N)CCCNC(=N)N[N+](=O)[O-] [Nitro-L-Arginine methyl ester]
- IC50 [1]: 1830 µM

Molecule: N=C(NCCC[C@H](N)C(=O)O)N[N+](=O)[O-] [Nitro-L-Arginine, N^G -nitroarginine]
- IC50 [1, 10]: 2120 µM
- inhibition of EDRF/NO synthesis [3]: served as inhibitors of EDRF/NO synthesis

Molecule: O=[N+]([O-])OCC(CO[N+](=O)[O-])O[N+](=O)[O-] [Nitroglycerin]
- Cardiac Output [7]: 2.72 ± 0.27 L/min
- Heart Rate [7]: 137.3 ± 5.0 beats/min
- Systemic Arterial Pressure [7]: 64.7 ± 2.7 mmHg
- Systemic Vascular Resistance [7]: 1924 ± 132 dynes-sec/cm^5

Molecule: NCCc1c[nH]cn1 [histamine, reference compound]
- effect on coronary flow (vasodilation) [8]: dose-dependent increase in coronary flow

Molecule: CC(=O)N[C@H]1C(O)O[C@H](CO)[C@@H](O)[C@@H]1O[C@H](C)C(=O)N[C@@H](C)C(=O)N[C@H](CCC(=O)O)C(N)=O (stereo partly shown) [muramyl dipeptide (MDP), muramyl dipeptide, reference compound]
- effect on nitrite production by MBEC [9]: Neither muramyl dipeptide (MDP) or Il-2 alone, or in combination with IFN effected nitrite production

B1: IFN: recombinant murine gamma-interferon (protein, UniProt P01580 23-155, looked up)
Interferon gamma: HGTVIESLESLNNYFNSSGIDVEEKSLFLDIWRNWQKDGDMKILQSQIISFYLRLFEVLKDNQAISNNISVIESHLITTFFSNSKAKKDAFMSIAKFEVNNPQVQRQAFNELIRVVHQLLPESSLRKRKRSRC
- effect on nitrite production by MBEC [9]: no effect
